# Source: patent US20260297134A1, “CYCLIC PEPTIDES AS PET IMAGING AGENTS OF GRANZYME B” (Merck Sharp & Dohme LLC, priority 2023, published 2026)
# Bridge positions count the residues as written; N and C are the ends. Square brackets hold non-standard residues; d marks the D form. Peptide text beside a SMILES is read from it. * marks the point of attachment. X1 = O=C(O)CN1CCN(CC(=O)O)CC(Cc2ccc(NC(=S)*)cc2)N(CC(=O)O)CC1; NMeF = CN[C@@H](Cc1ccccc1)C(=O)O; Propionyl = CCC(=O)*
# Target: human Granzyme B (hGranzyme B) (Homo sapiens, UniProt P10144)
# Sequence (P10144 21-247): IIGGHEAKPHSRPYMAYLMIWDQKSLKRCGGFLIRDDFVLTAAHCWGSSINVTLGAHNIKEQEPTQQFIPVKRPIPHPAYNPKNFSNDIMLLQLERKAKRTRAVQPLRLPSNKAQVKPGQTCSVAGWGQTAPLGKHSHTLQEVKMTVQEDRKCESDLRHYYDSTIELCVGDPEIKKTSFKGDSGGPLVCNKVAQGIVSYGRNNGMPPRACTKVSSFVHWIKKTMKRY
# Assay: Surface Plasmon Resonance (SPR) binding to human Granzyme B
# Details: Table 8, 25° C.
# Method: All reagents and solvents were purchased from commercial sources and used “as is” unless otherwise noted. Reaction progress and synthetic intermediate analysis were assessed by LCMS (UV detection with ESI, APCI, or other mass detection) when applicable using a MeCN/water gradient with either TFA, formic acid, or NH4HCO3 modifier. Silica gel and reverse-phase flash column chromatography were conducted with commercially available pre-packed columns. Reverse-phase preparative HPLC purification was performed on preparative HPLC instruments with UV and MS detection using a MeCN/water gradient with either TFA, formic acid, or NH4OH modifier. Unless otherwise noted, all KD data presented in tables refers to the surface plasmon resonance assay that is described in the Biological Assay section.
# The kinetics of test peptide binding to human Granzyme B (hGranzyme B) was determined by SPR. All experiments were performed at 25° C. using the Biacore 8k+ instrument (Cytiva, Marlborough, MA). The Biacore 8k+ Insight Evaluation Software Version 3.0 was used to fit the data with a 1:1 binding model to determine the association rate constant ka (M^−1s^−1, where “M” equals molar and “s” equals seconds) and the dissociation rate constant kd (s^−1). These rate constants were used to calculate the equilibrium dissociation constant, KD (M)=kd/ka. To measure the binding kinetics of peptides of interest, surfaces were prepared by a capture method to a Series S Streptavidin (SA) chip using a 1×HBS-EP+ running buffer (Cytiva). hGranzyme B was diluted to 10 μg/mL in 1×HBS-EP+ and flowed over spot 2 of each flow cell on the chip at a flow rate of 10 μl/min for 20 s to achieve a level of capture of ~1100 RU. An unmodified spot 1 of each flow cell was used as a matrix binding control or reference surface. Binding kinetics were measured using single cycle kinetics at 25° C. by injecting 5 concentrations with 3-fold serial dilutions of test peptides from […] to 1 μM. Compound dilutions were performed manually in a running buffer containing 1×HBS-EP+(Cytiva), and a final concentration of 2% DMSO. The interaction analyses over hGranzyme B, were performed using a 120 s association time and a 900 s dissociation time. All experiments were conducted at a flow rate of […] with a data collection rate of 10 Hz.
# Peptide dilution series included 2 zero concentration points (no compound) which were averaged and subtracted from the peptide concentration injection as DMSO control responses. Binding data acquired from the reference surface (matrix binding control) were subtracted from the binding data for hGranzyme B surface on the chip to determine specific binding. Next, the association phase data were solvent corrected to account for any signal fluctuation throughout the experiment due to subtle DMSO concentration differences. Corrected response data were analyzed using the Biacore 8k+ Evaluation Software Version 3.0 according to the manufacturer. SPR data for representative compounds of the disclosure are found in Table 8.
row,Compound,Kd
1,"CC(C)[C@@H]1NC(=O)[C@H](CC(=O)O)NC(=O)[C@H](Cc2ccc(O)cc2)NC(=O)[C@H](Cc2ccc(O)cc2)NC(=O)[C@H](Cc2ccccc2)N(C)C(=O)[C@H](Cc2ccccc2)N(C)C(=O)[C@H](Cc2ccccc2)NC(=O)CSC[C@@H](C(=O)NCC(=O)NCC(=O)N[C@@H](CCCCNC(=S)Nc2ccc(CC3CN(CC(=O)O)CCN(CC(=O)O)CCN3CC(=O)O)cc2)C(N)=O)NC(=O)[C@H](Cc2c[nH]cn2)NC(=O)[C@H](Cc2ccccc2)N(C)C(=O)[C@H](Cc2ccc(O)cc2)NC(=O)[C@H](C(C)C)NC(=O)[C@H](CC(=O)O)NC(=O)[C@H](C)NC(=O)[C@H](CC(=O)O)NC1=O (some centres unmarked) [Compound 8a, *F.NMeF.NMeF.Y.Y.D.V.D.A.D.V.Y.NMeF.H.*C.G.G.K(NOTA)-NH2] ({CH2CO}-F[NMeF][NMeF]YYDVDADVY[NMeF]HCGGK(X1)-NH2; thioether N-15)",3.7 nM
2,"CCC(=O)NCCCC[C@H](NC(=O)CNC(=O)CNC(=O)[C@@H]1CSCC(=O)N[C@@H](Cc2ccccc2)C(=O)N(C)[C@@H](Cc2ccccc2)C(=O)N(C)[C@@H](Cc2ccccc2)C(=O)N[C@@H](Cc2ccc(O)cc2)C(=O)N[C@@H](Cc2ccc(O)cc2)C(=O)N[C@@H](CC(=O)O)C(=O)N[C@@H](C(C)C)C(=O)N[C@@H](CC(=O)O)C(=O)N[C@@H](C(C)C)C(=O)N[C@@H](CC(=O)O)C(=O)N[C@@H](C(C)C)C(=O)N[C@@H](Cc2ccc(O)cc2)C(=O)N(C)[C@@H](Cc2ccccc2)C(=O)N[C@@H](Cc2c[nH]cn2)C(=O)N1)C(N)=O [Compound 4a, *F.NMeF.NMeF.Y.Y.D.V.D.V.D.V.Y.NMeF.H.*C.G.G.K(Prop)-NH2] ({CH2CO}-F[NMeF][NMeF]YYDVDVDVY[NMeF]HCGGK(Propionyl)-NH2; thioether N-15)",1.1 nM

# Results, then the compound that gave them:
row,Kd,Compound
1,10.7 nM,"CC(C)[C@@H]1NC(=O)[C@H](CC(=O)O)NC(=O)[C@H](C(C)C)NC(=O)[C@H](CC(=O)O)NC(=O)[C@H](Cc2ccc(O)cc2)NC(=O)[C@H](Cc2ccc(O)cc2)NC(=O)[C@H](Cc2ccccc2)N(C)C(=O)[C@H](Cc2ccccc2)N(C)C(=O)[C@H](Cc2ccccc2)NC(=O)CSC[C@@H](C(=O)NCC(N)=O)NC(=O)[C@H](Cc2c[nH]cn2)NC(=O)[C@H](Cc2ccccc2)N(C)C(=O)[C@H](Cc2ccc(O)cc2)NC(=O)[C@H](C)NC(=O)[C@H](CC(=O)O)NC1=O [Compound 17a, *F.NMeF.NMeF.Y.Y.D.V.D.V.D.A.Y.NMeF.H.*C.G-NH2] ({CH2CO}-F[NMeF][NMeF]YYDVDVDAY[NMeF]HCG-NH2; thioether N-15)"
2,0.8 nM,"CC(C)[C@@H]1NC(=O)[C@H](CC(=O)O)NC(=O)[C@H](C)NC(=O)[C@H](Cc2ccc(O)cc2)NC(=O)[C@H](Cc2ccccc2)N(C)C(=O)[C@H](Cc2ccccc2)N(C)C(=O)[C@H](Cc2ccccc2)NC(=O)CSC[C@@H](C(=O)NCC(N)=O)NC(=O)[C@H](Cc2c[nH]cn2)NC(=O)[C@H](Cc2ccccc2)N(C)C(=O)[C@H](Cc2ccc(O)cc2)NC(=O)[C@H](C(C)C)NC(=O)[C@H](CC(=O)O)NC(=O)[C@H](C(C)C)NC(=O)[C@H](CC(=O)O)NC1=O [Compound 15a, *F.NMeF.NMeF.Y.A.D.V.D.V.D.V.Y.NMeF.H.*C.G-NH2] ({CH2CO}-F[NMeF][NMeF]YADVDVDVY[NMeF]HCG-NH2; thioether N-15)"
3,752 nM,"CC(C)[C@@H]1NC(=O)[C@H](CC(=O)O)NC(=O)[C@H](Cc2ccc(O)cc2)NC(=O)[C@H](C)NC(=O)[C@H](Cc2ccccc2)N(C)C(=O)[C@H](Cc2ccccc2)N(C)C(=O)[C@H](Cc2ccccc2)NC(=O)CSC[C@@H](C(=O)NCC(N)=O)NC(=O)[C@H](Cc2c[nH]cn2)NC(=O)[C@H](Cc2ccccc2)N(C)C(=O)[C@H](Cc2ccc(O)cc2)NC(=O)[C@H](C(C)C)NC(=O)[C@H](CC(=O)O)NC(=O)[C@H](C(C)C)NC(=O)[C@H](CC(=O)O)NC1=O [Compound 23a, *F.NMeF.NMeF.A.Y.D.V.D.V.D.V.Y.NMeF.H.*C.G-NH2] ({CH2CO}-F[NMeF][NMeF]AYDVDVDVY[NMeF]HCG-NH2; thioether N-15)"
